From ChEMBL document CHEMBL3400114, “The design, synthesis and biological evaluation of conformationally restricted 4-substituted-2,6-dimethylfuro[2,3-d]pyrimidines as multi-targeted receptor tyrosine kinase and microtubule inhibitors as potential antitumor agents” (Bioorg Med Chem, 2015)

What was measured:
[1] = Induction of microtubule depolymerization in rat A10 cells after 18 hrs by indirect immunofluorescence assay; assay type: cell-based
[2] = target: Tubulin (Bos taurus, UniProt Q6B856+Q862L2+Q862F3); experiment: Inhibition of bovine brain tubulin assembly
[3] = system: MDA-MB-435; experiment: Antiproliferative activity against human MDA-MB-435 cells after 48 hrs by sulforhodamine B assay; assay type: functional, cell-based; details: MDA-MB-435, 48 h
[4] = Antiproliferative activity against human SKOV3 cells overexpressing wild type beta3 tubulin after 48 hrs by sulforhodamine B assay; assay type: functional, cell-based; details: SK-OV-3, 48 h
[5] = Antiproliferative activity against human SKOV3-MDR1-M6/6 cells overexpressing wild type beta3 tubulin after 48 hrs by sulforhodamine B assay; assay type: functional, cell-based; details: SKOV3-MDR1-M6/6, 48 h
[6] = system: NCI-H522; experiment: Growth inhibition of human NCI-H522 cells after 48 hrs by sulforhodamine B assay; assay type: functional; details: NCI-H522, 48 h
[7] = system: K562; experiment: Growth inhibition of human K562 cells after 48 hrs by sulforhodamine B assay; assay type: functional; details: K562, 48 h
[8] = system: A-431; experiment: Antiproliferative activity against human A431 cells after 48 hrs by sulforhodamine B assay; assay type: functional, cell-based; details: A-431, 48 h
[9] = system: SK-MEL-5; experiment: Growth inhibition of human SK-MEL-5 cells after 48 hrs by sulforhodamine B assay; assay type: functional; details: SK-MEL-5, 48 h
[10] = Growth inhibition of human UACC62 cells after 48 hrs by sulforhodamine B assay; assay type: functional; details: UACC-62, 48 h
[11] = system: SR; experiment: Growth inhibition of human SR cells after 48 hrs by sulforhodamine B assay; assay type: functional
[12] = system: HOP-62; experiment: Growth inhibition of human HOP62 cells after 48 hrs by sulforhodamine B assay; assay type: functional; details: HOP-62, 48 h
[13] = system: SK-OV-3; experiment: Growth inhibition of human SKOV3 cells after 48 hrs by sulforhodamine B assay; assay type: functional; details: SK-OV-3, 48 h
[14] = system: SW-620; experiment: Growth inhibition of human SW620 cells after 48 hrs by sulforhodamine B assay; assay type: functional; details: SW-620, 48 h
[15] = system: NCI-H226; experiment: Growth inhibition of human NCI-H226 cells after 48 hrs by sulforhodamine B assay; assay type: functional; details: NCI-H226, 48 h
[16] = Growth inhibition of human HCT116 cells after 48 hrs by sulforhodamine B assay; assay type: functional; details: HCT-116, 48 h
[17] = Growth inhibition of human OVCAR8 cells after 48 hrs by sulforhodamine B assay; assay type: functional; details: OVCAR-8, 48 h
[18] = system: MDA-MB-468; experiment: Growth inhibition of human MDA-MB-468 cells after 48 hrs by sulforhodamine B assay; assay type: functional; details: MDA-MB-468, 48 h
[19] = system: SNB-75; experiment: Growth inhibition of human SNB75 cells after 48 hrs by sulforhodamine B assay; assay type: functional; details: SNB-75, 48 h
[20] = system: MCF7; experiment: Growth inhibition of human MCF7 cells after 48 hrs by sulforhodamine B assay; assay type: functional; details: MCF7, 48 h
[21] = system: HeLa; experiment: Resistance ratio of IC50 for human HeLa cells overexpressing wild type beta3 tubulin to IC50 for human HeLa cells; assay type: functional
[22] = system: HT-29; experiment: Growth inhibition of human HT-29 cells after 48 hrs by sulforhodamine B assay; assay type: functional; details: HT-29, 48 h
[23] = system: NCI/ADR-RES; experiment: Growth inhibition of human NCI/ADR-RES cells after 48 hrs by sulforhodamine B assay; assay type: functional
[24] = Ratio of EC50 for microtubule depolymerization in rat A10 cells to IC50 for human MDA-MB-435 cells
[25] = system: HL-60(TB); experiment: Growth inhibition of human HL-60(TB) cells after 48 hrs by sulforhodamine B assay; assay type: functional; details: HL-60, 48 h
[26] = system: NCI-H23; experiment: Growth inhibition of human NCI-H23 cells after 48 hrs by sulforhodamine B assay; assay type: functional; details: NCI-H23, 48 h
[27] = system: KM12; experiment: Growth inhibition of human KM12 cells after 48 hrs by sulforhodamine B assay; assay type: functional; details: KM12, 48 h
[28] = system: SK-OV-3; experiment: Resistance ratio of IC50 for human SKOV3-MDR1-M6/6 cells to IC50 for human SKOV3 cells; assay type: functional
[29] = system: CAKI-1; experiment: Growth inhibition of human Caki1 cells after 48 hrs by sulforhodamine B assay; assay type: functional; details: CAKI-1, 48 h
[30] = Growth inhibition of human […] cells after 48 hrs by sulforhodamine B assay; assay type: functional
[31] = Growth inhibition of human SF539 cells after 48 hrs by sulforhodamine B assay; assay type: functional; details: SF-539, 48 h
[32] = Growth inhibition of human Hs 578T cells after 48 hrs by sulforhodamine B assay; assay type: functional
[33] = Growth inhibition of human COLO205 cells after 48 hrs by sulforhodamine B assay; assay type: functional; details: COLO 205, 48 h
[34] = system: IGROV-1; experiment: Growth inhibition of human IGROV1 cells after 48 hrs by sulforhodamine B assay; assay type: functional; details: IGROV-1, 48 h
[35] = Growth inhibition of human EKVX cells after 48 hrs by sulforhodamine B assay; assay type: functional
[36] = Growth inhibition of human MOLT4 cells after 48 hrs by sulforhodamine B assay; assay type: functional; details: MOLT-4, 48 h
[37] = system: MDA-MB-435; experiment: Growth inhibition of human MDA-MB-435 cells after 48 hrs by sulforhodamine B assay; assay type: functional; details: MDA-MB-435, 48 h
[38] = system: SF-268; experiment: Growth inhibition of human SF268 cells after 48 hrs by sulforhodamine B assay; assay type: functional; details: SF-268, 48 h
[39] = Growth inhibition of human PC3 cells after 48 hrs by sulforhodamine B assay; assay type: functional; details: PC-3, 48 h
[40] = Growth inhibition of human HOP92 cells after 48 hrs by sulforhodamine B assay; assay type: functional; details: HOP-92, 48 h
[41] = system: TK-10; experiment: Growth inhibition of human TK10 cells after 48 hrs by sulforhodamine B assay; assay type: functional; details: TK-10, 48 h
[42] = system: SN12C; experiment: Growth inhibition of human SN12C cells after 48 hrs by sulforhodamine B assay; assay type: functional
[43] = system: CCRF-CEM; experiment: Growth inhibition of human CCRF-CEM cells after 48 hrs by sulforhodamine B assay; assay type: functional
[44] = system: SK-MEL-2; experiment: Growth inhibition of human SK-MEL-2 cells after 48 hrs by sulforhodamine B assay; assay type: functional; details: SK-MEL-2, 48 h
[45] = Growth inhibition of human OVCAR5 cells after 48 hrs by sulforhodamine B assay; assay type: functional; details: OVCAR-5, 48 h
[46] = Growth inhibition of human OVCAR4 cells after 48 hrs by sulforhodamine B assay; assay type: functional; details: OVCAR-4, 48 h
[47] = system: M14; experiment: Growth inhibition of human M14 cells after 48 hrs by sulforhodamine B assay; assay type: functional; details: M14, 48 h
[48] = Growth inhibition of human RXF393 cells after 48 hrs by sulforhodamine B assay; assay type: functional; details: RXF 393, 48 h
[49] = Growth inhibition of human BT549 cells after 48 hrs by sulforhodamine B assay; assay type: functional; details: BT-549, 48 h
[50] = system: DU-145; experiment: Growth inhibition of human DU145 cells after 48 hrs by sulforhodamine B assay; assay type: functional; details: DU-145, 48 h
[51] = system: NCI-H460; experiment: Growth inhibition of human NCI-H460 cells after 48 hrs by sulforhodamine B assay; assay type: functional; details: NCI-H460, 48 h
[52] = Growth inhibition of human SF295 cells after 48 hrs by sulforhodamine B assay; assay type: functional; details: SF-295, 48 h
[53] = system: HeLa; experiment: Antiproliferative activity against human HeLa cells after 48 hrs by sulforhodamine B assay; assay type: functional, cell-based
[54] = Growth inhibition of human LOXIMVI cells after 48 hrs by sulforhodamine B assay; assay type: functional; details: LOX IMVI
[55] = system: U-251; experiment: Growth inhibition of human U251 cells after 48 hrs by sulforhodamine B assay; assay type: functional; details: U-251, 48 h
[56] = Growth inhibition of human HCT15 cells after 48 hrs by sulforhodamine B assay; assay type: functional; details: HCT-15, 48 h
[57] = system: 786-0; experiment: Growth inhibition of human 786-0 cells after 48 hrs by sulforhodamine B assay; assay type: functional; details: 786-0, 48 h
[58] = system: ACHN; experiment: Growth inhibition of human ACHN cells after 48 hrs by sulforhodamine B assay; assay type: functional
[59] = system: MDA-MB-231; experiment: Growth inhibition of human MDA-MB-231 cells after 48 hrs by sulforhodamine B assay; assay type: functional; details: MDA-MB-231, 48 h
[60] = system: SNB-19; experiment: Growth inhibition of human SNB19 cells after 48 hrs by sulforhodamine B assay; assay type: functional; details: SNB-19, 48 h
[61] = Antiangiogenic activity in VEGF-165 and bFGF-stimulated chicken embryo chorioallantoic membrane assessed as inhibition of blood vessel formation after 40 hrs by microscopy; assay type: functional, tissue-based, Gallus gallus
[62] = Growth inhibition of human OVCAR3 cells after 48 hrs by sulforhodamine B assay; assay type: functional; details: OVCAR-3, 48 h
[63] = system: HeLa; experiment: Antiproliferative activity against human HeLa cells overexpressing wild type beta3 tubulin after 48 hrs by sulforhodamine B assay; assay type: functional, cell-based

## COc1ccc(N(C)c2nc(C)nc3oc(C)cc23)cc1
[1]
  EC50: 103 nM
[2]
  IC50: 2400 nM

## COc1ccc(/C=C\c2cc(OC)c(OC)c(OC)c2)cc1O [COMBRETASTATIN A4]
[3]
  IC50: 5 nM
[4]
  IC50: 6.9 nM
[1]
  EC50: 9.8 nM
[5]
  IC50: 3 nM

## Cc1nc(N(C)c2ccc3c(c2)CCO3)c2cc(C)oc2n1
[6]
  GI50: 12.9 nM
[7]
  GI50: 31.7 nM
[8]
  IC50: 38.3 nM
[9]
  GI50: 31.4 nM
[10]
  GI50: 61.3 nM
[11]
  GI50: 36.6 nM
[12]
  GI50: 39.6 nM
[13]
  GI50: 37.6 nM
[14]
  GI50: 41.6 nM
[15]
  GI50: 162 nM
[16]
  GI50: 45.1 nM
[17]
  GI50: 63 nM
[18]
  GI50: 22.1 nM
[19]
  GI50: 30.4 nM
[20]
  GI50: 40.2 nM
[21]
  Ratio IC50: 0.9
[22]
  GI50: 32.4 nM
[3]
  IC50: 96.2 nM
[23]
  GI50: 26.5 nM
[24]
  Ratio: 6
[25]
  GI50: 27.6 nM
[26]
  GI50: 43.9 nM
[4]
  IC50: 120 nM
[1]
  EC50: 606 nM
[27]
  GI50: 40.1 nM
[28]
  Ratio IC50: 1.3
[29]
  GI50: 40.1 nM
[30]
  GI50: 54.2 nM
[31]
  GI50: 31.6 nM
[32]
  GI50: 31 nM
[33]
  GI50: 40.3 nM
[34]
  GI50: 62.9 nM
[35]
  GI50: 70 nM
[36]
  GI50: 76.7 nM
[37]
  GI50: 14 nM
[38]
  GI50: 13.9 nM
[5]
  IC50: 155 nM
[39]
  GI50: 52.2 nM
[40]
  GI50: 45.8 nM
[41]
  GI50: 50.2 nM
[42]
  GI50: 97.2 nM
[43]
  GI50: 58.1 nM
[44]
  GI50: 26.4 nM
[45]
  GI50: 262 nM
[46]
  GI50: 83.4 nM
[47]
  GI50: 34.8 nM
[48]
  GI50: 21.2 nM
[49]
  GI50: 77.2 nM
[50]
  GI50: 44.1 nM
[51]
  GI50: 42 nM
[52]
  GI50: 30.5 nM
[53]
  IC50: 105 nM
[54]
  GI50: 45.6 nM
[55]
  GI50: 39.7 nM
[56]
  GI50: 38.9 nM
[57]
  GI50: 80.4 nM
[58]
  GI50: 64.2 nM
[59]
  GI50: 148 nM
[60]
  GI50: 56.5 nM
[61]
  IC50: 14000 nM
[62]
  GI50: 24.5 nM
[63]
  IC50: 94 nM
